Laboratory results taken from patent US8648191B2, “Cyclohexyloxy substituted heterocycles, pharmaceutical compositions containing these compounds and processes for preparing them” (Boehringer Ingelheim International GmbH, priority 2008, dated 2014).

Target: T1, human EGF-R (Homo sapiens, UniProt P00533)
T1 construct: expressed in transfected cells
Test: Inhibition of the EGFR-dependent proliferation of a murine haematopoietic cell line expressing human EGF-R, stimulated with EGF
Format: cell-based
Conditions: 20 ng/ml human EGF, 48 hours at 37° C., Cell Titer 96 AQueous assay
Procedure: A murine haematopoietic cell line is genetically modified so as to express functional human EGF-R. The proliferation of this cell line can therefore be stimulated by EGF.
The test is carried out as follows:
The cells are cultivated in RPMI/1640 medium. The proliferation is stimulated with 20 ng/ml of human EGF (Promega). To investigate the inhibitory activity of the compounds according to the invention these compounds are dissolved in 100% dimethylsulphoxide (DMSO) and added to the cultures in various dilutions, the maximum DMSO concentration being 1%. The cultures are incubated for 48 hours at 37° C.
In order to determine the inhibitory activity of the compounds according to the invention the relative cell number is measured in O.D. Units using the Cell Titer 96™ AQueous Non-Radioactive Cell Proliferation Assay (Promega). The relative cell number is calculated as a percentage of the control and the concentration of active substance which inhibits the proliferation of the cells by 50% (IC50) is derived therefrom.

T1 sequence (P00533 25-1210): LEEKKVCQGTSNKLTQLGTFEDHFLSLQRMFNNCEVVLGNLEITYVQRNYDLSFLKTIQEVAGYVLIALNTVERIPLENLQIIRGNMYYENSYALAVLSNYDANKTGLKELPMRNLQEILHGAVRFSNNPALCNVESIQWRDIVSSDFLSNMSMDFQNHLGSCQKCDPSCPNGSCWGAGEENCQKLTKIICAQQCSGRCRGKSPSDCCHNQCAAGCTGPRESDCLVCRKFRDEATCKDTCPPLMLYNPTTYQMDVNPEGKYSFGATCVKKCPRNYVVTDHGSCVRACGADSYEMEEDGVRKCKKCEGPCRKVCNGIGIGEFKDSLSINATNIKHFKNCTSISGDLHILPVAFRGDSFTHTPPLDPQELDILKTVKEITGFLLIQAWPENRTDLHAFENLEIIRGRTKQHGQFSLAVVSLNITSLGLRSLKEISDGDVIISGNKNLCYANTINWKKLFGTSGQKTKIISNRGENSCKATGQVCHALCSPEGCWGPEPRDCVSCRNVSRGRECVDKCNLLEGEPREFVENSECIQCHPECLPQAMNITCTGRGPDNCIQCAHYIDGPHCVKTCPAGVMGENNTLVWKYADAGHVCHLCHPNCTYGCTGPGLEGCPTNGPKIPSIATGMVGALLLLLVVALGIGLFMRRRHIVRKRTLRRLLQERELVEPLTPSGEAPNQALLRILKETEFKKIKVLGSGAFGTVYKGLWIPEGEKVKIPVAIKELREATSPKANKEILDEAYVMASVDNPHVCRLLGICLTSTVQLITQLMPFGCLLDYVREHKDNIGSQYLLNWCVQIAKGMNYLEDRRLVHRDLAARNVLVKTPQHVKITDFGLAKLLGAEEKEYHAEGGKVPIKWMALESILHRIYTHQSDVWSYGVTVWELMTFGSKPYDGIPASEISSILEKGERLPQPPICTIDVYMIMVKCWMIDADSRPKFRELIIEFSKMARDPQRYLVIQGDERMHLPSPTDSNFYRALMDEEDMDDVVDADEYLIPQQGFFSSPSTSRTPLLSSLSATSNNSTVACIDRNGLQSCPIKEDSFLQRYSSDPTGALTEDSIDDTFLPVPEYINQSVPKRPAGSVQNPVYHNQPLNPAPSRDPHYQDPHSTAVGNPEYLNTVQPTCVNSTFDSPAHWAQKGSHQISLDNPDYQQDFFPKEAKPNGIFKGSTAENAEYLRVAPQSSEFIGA

Row | IC50 [nM] | SMILES
1 | 1 | COc1cc2ncnc(Nc3cccc(Cl)c3F)c2cc1OC1CCC([C@H]2C(=O)N(C)CCN2C)CC1 (mixture of isomers) [1(3), cis/trans-(S)-3-{4-[4-(3-chloro-2-fluoro-phenylamino)-7-methoxy-quinazolin-6-yloxy]-cyclohexyl}-1,4-dimethyl-piperazin-2-one]
2 | 1 | COc1cc2ncnc(Nc3cccc(Cl)c3F)c2cc1OC1CCC([C@H]2C(=O)NCCN2C)CC1 (mixture of isomers) [Example 1, cis/trans-(S)-3-{-4-[4-(3-chloro-2-fluoro-phenylamino)-7-methoxy-quinazolin-6-yloxy]-cyclohexyl}-4-methyl-piperazin-2-one]
3 | 10 | COc1cc2ncnc(Nc3cccc(Cl)c3F)c2cc1O[C@H]1CC[C@@H]([C@@H]2NCCNC2=O)CC1 [1(1a), cis-(S)-3-{4-[4-(3-chloro-2-fluoro-phenylamino)-7-methoxy-quinazolin-6-yloxy]-cyclohexyl}-piperazin-2-one]
4 | 1.4 | COc1cc2ncnc(Nc3cccc(Cl)c3F)c2cc1O[C@H]1CC[C@H]([C@@H]2NCCNC2=O)CC1 [1(1b), trans-(S)-3-{4-[4-(3-chloro-2-fluoro-phenylamino)-7-methoxy-quinazolin-6-yloxy]-cyclohexyl}-piperazin-2-one]
5 | 1 | COc1cc2ncnc(Nc3cccc(Cl)c3F)c2cc1O[C@H]1CC[C@H]([C@@H]2NCCN(C)C2=O)CC1 [1(2), trans-(S)-3-{4-[4-(3-chloro-2-fluoro-phenylamino)-7-methoxy-quinazolin-6-yloxy]-cyclohexyl}-1-methyl-piperazin-2-one]
6 | 12.5 | COc1cc2ncnc(Nc3cccc(Cl)c3F)c2cc1O[C@H]1CC[C@@H]([C@H]2NCCNC2=O)CC1 [1(4), cis-(R)-3-{4-[4-(3-chloro-2-fluoro-phenylamino)-7-methoxy-quinazolin-6-yloxy]-cyclohexyl}-piperazin-2-one]
7 | 1.6 | COc1cc2ncnc(Nc3cccc(Cl)c3F)c2cc1O[C@H]1CC[C@H]([C@H]2NCCNC2=O)CC1 [1(5), trans-(R)-3-{4-[4-(3-chloro-2-fluoro-phenylamino)-7-methoxy-quinazolin-6-yloxy]-cyclohexyl}-piperazin-2-one]
